US20200171065A1, “METHOD FOR TREATING LIVER DISEASE WITH KINSENOSIDE” (HUAZHONG UNIVERSITY OF SCIENCE AND TECHNOLOGY, priority 2017, published 2020)
Entries after “also recorded” stand apart in the source; their conditions may differ.

Columns and labels:
[1] = system: C57BL/6J mice with alcoholic liver fibrosis; test: Alcoholic liver fibrosis (Lieber-DeCarli liquid diet + CCl4); format: in vivo
Procedure: (§1) C57BL/6J mice aged 8 weeks were raised in the SPF experimental animal center of Tongji Medical College of Huazhong University of Science and Technology. They were provided with standard diet and drinking water. The room temperature was controlled at 23±2° C. After 7 days of adaptive feeding, they were given drugs by intragastric administration.
The mice were fed with a 5% alcoholic Lieber-DeCarli liquid diet and intraperitoneal injection of CCl4 (CCl4 was intraperitoneally injected twice a week for the last four weeks). The mice were developed alcoholic fatty liver disease. The mice were administered with alcohol and drugs. Spherically, drinking water were administered to the control group and the model group, and different doses were administered to the dose groups.

[2] = system: C57BL/6J mice with alcoholic fatty liver; test: Alcoholic fatty liver (5% alcoholic Lieber-DeCarli liquid diet); format: in vivo
Procedure: as §1, with “7-8” for “8”, “administration. […] The mice were fed with a 5% alcoholic Lieber-DeCarli liquid diet and developed alcoholic fatty liver disease. The mice were administered with alcohol and drugs. Spherically, drinking water were administered to the control group and the model group, and different doses were administered to the dose groups.” for “administration.”

[3] = system: C57 mice with D-GalN/LPS acute liver failure; test: Acute liver failure induced by D-GalN + LPS; format: in vivo
Procedure: 60 SPF male C57 mice were purchased and raised in the SPF experimental animal center of Tongji Medical College of Huazhong University of Science and Technology. The mice were provided with standard diet and drinking water. The room temperature was controlled at 23±2° C. After 7 days of adaptive feeding, the mice were administered by intragastric administration. The mice were divided into a control group (administered with distilled water), a model group (administered with distilled water), a high dose group (KD-400 group, 400 mg/kg KD), a medium dose group (KD-200 group, 200 mg/kg KD) and a low dose group (KD-100 group, 100 mg/kg KD), ten mice each group. The mice were weighed the next day, and were continuously administered with above drugs respectively for 10 days. One hour after the last gavage, the mice were injected intraperitoneally (the control group was injected with the same amount of normal saline). The agent for the intraperitoneal injection was galactosamine (D-GalN, 500 mg/kg)+lipopolysaccharide (LPS, Eschericia coli 0111: B4, 5 ug/kg), all purchased from Sigma-Aldrich.

[4] = system: hepatic stellate cells (HSC-T6) activated by TGF-β1; test: Hepatic stellate cells (HSC-T6) activated by TGF-β1; format: cell-based; conditions: different concentrations of KD
Text: HSCs are important cells involved in liver fibrosis. The activation of HSCs is a key element of the development of liver fibrosis, and its apoptosis can reverse liver fibrosis. Different concentrations of KD were used to […] the hepatic stellate cells (HSC-T6) activated by TGF-β1.

## O=C1C[C@@H](O[C@@H]2O[C@H](CO)[C@@H](O)[C@H](O)[C@H]2O)CO1 [KD]
[1]; 40 and 20 mg/kg KD
  fibrosis degree (Masson staining): can significantly reduce the degree of fibrosis in mice; also recorded: the fibrosis degree was reduced
  inflammatory cells and Mallory bodies (H&E staining): the inflammatory cells in the KD group were reduced compared with the model group
[1]; ALF mice
  SOD activity in the liver homogenate / oxidative stress injuries: increased the activity of superoxide dismutase (SOD) in the liver of AFL and ALF mice; also recorded: could reverse the oxidative stress injuries
  serum ALT: decreased the serum alanine aminotransferase (ALT) of AFL and ALF mice; also recorded: decreased after KD treatment
[1]; high and medium dose groups
  secretion of TNF-α and IL-6: inhibited the secretion of TNF and IL6 in AFL and ALF; also recorded: reduced the secretion of the inflammatory cytokine TNF-α and IL-6
[1]; mouse, in vivo
  therapeutic effect on alcoholic liver fibrosis (overall): has a good therapeutic effect on alcoholic fatty liver and alcoholic liver fibrosis
[2]; 40 and 20 mg/kg KD
  fat vacuoles / histopathological damage of liver (H&E staining): could reduce histopathological damage of liver and reduce fat vacuoles in liver of mice; also recorded: fat vacuoles were reduced
[2]; AFL mice
  SOD activity in the liver / oxidative stress injuries: increased the activity of superoxide dismutase (SOD) in the liver of AFL and ALF mice; also recorded: could reverse the oxidative stress injuries
  serum ALT: decreased the serum alanine aminotransferase (ALT) of AFL and ALF mice
[2]; high and medium dose groups
  secretion of TNF-α and IL-6: inhibited the secretion of TNF and IL6 in AFL and ALF; also recorded: reduced the secretion of the inflammatory cytokine TNF-α and IL-6
[2]; mouse, in vivo
  therapeutic effect on alcoholic fatty liver (overall): has a good therapeutic effect on alcoholic fatty liver and alcoholic liver fibrosis
[3]; KD 100-400 mg/kg, 10 days, gavage, silymarin dose not given
  bleeding and swelling of the liver (appearance): can significantly improve the bleeding and swelling of the liver
[3]; high, medium and low dose groups
  inflammatory cytokines TNF-α, IL-12p70, IFN-γ (flow cytometry kit): had significant anti-inflammatory effect
[3]; high, middle and low KD dose groups
  liver histopathological damage (H&E staining): can reduce liver histopathological damage
[3]; high-dose group
  apoptotic marker proteins PARP and C-C3 (Western blot): could reduce abnormal apoptosis of hepatocytes; also recorded: could down regulate the apoptotic protein
[3]; mouse, in vivo
  apoptosis of liver cells (Tunel fluorescence staining): could inhibit abnormal apoptosis of the liver cells
  development of acute liver failure (overall): can effectively prevent the development of acute liver failure and reduce liver damage
  endoplasmic reticulum stress, expansion and vesiculation: could down-regulate the process
  liver weight/body weight: could improve the weight gain of liver bleeding
  mitochondrial structure of the liver (transmission electron microscopy): the mitochondrial structure of the liver of the mice was protected
  oxidative stress injuries (MDA, SOD): protect the mice from the oxidative stress injuries
[4]
  apoptosis of HSC-T6: promote its apoptosis
  cell cycle of HSC-T6: could block the cell cycle of the HSC-T6 in the G0/G1 phase
  proliferation of HSC-T6: inhibit its proliferation
